From ChEMBL document CHEMBL1138608, “The discovery of potent, selective, and orally bioavailable PDE9 inhibitors as potential hypoglycemic agents” (Bioorg Med Chem Lett, 2009) come the findings set out here.

Data set [1] addresses High affinity cGMP-specific 3',5'-cyclic phosphodiesterase 9A (Homo sapiens, UniProt O76083). Description: Inhibition of human recombinant PDE9 expressed in SF9 cells by scintillation proximity assay. For orientation: In a scintillation proximity assay essentially only radioactivity close to the scintillant gives light.
Data set [2] concerns the target Dual specificity calcium/calmodulin-dependent 3',5'-cyclic nucleotide phosphodiesterase 1A (Homo sapiens, UniProt P54750). In words: Inhibition of PDE1a.
Data set [3] has as its target Dual specificity calcium/calmodulin-dependent 3',5'-cyclic nucleotide phosphodiesterase 1B (Homo sapiens, UniProt Q01064). In words: Inhibition of PDE1b.
Data set [4] deals with Dual specificity calcium/calmodulin-dependent 3',5'-cyclic nucleotide phosphodiesterase 1C (Homo sapiens, UniProt Q14123). Description: Inhibition of PDE1c.
The test system of data set [5] is Mus musculus. In words: Reduction of glucose level in ob/ob mouse at 100 mg/kg, po administered by subchronic dosing for 4 days relative to control (RVb 406 mg/dl). In kind it is functional. On the set-up: scale not given: the % may be the effect or the level left.
Data set [6] concerns Mus musculus. In words: Reduction of glucose level in ob/ob mouse at 250 mg/kg, po administered by subchronic dosing for 4 days (RVb 406 mg/dl). In kind it is functional. On the set-up: scale not given: the % may be the effect or the level left.
For data set [7], the system named is Mus musculus. In words: Reduction of glucose level in ob/ob mouse at 500 mg/kg, po administered by subchronic dosing for 4 days (RVb 406 mg/dl). On the set-up: scale not given: the % may be the effect or the level left. The format is functional.
Data set [8] relates to Mus musculus. Description: Reduction of insulin level in ob/ob mouse at 100 mg/kg, po administered by subchronic dosing for 4 days (RVb 23 ng/mL). The format is functional. On the set-up: scale not given: the % may be the effect or the level left.
For data set [9], the system named is Mus musculus. Description: Reduction of insulin level in ob/ob mouse at 250 mg/kg, po administered by subchronic dosing for 4 days (RVb 23 ng/mL). In kind it is functional. On the set-up: scale not given: the % may be the effect or the level left.
For data set [10], the system named is Mus musculus. Description: Reduction of insulin level in ob/ob mouse at 500 mg/kg, po administered by subchronic dosing for 4 days (RVb 23 ng/mL). In kind it is functional. On the set-up: scale not given: the % may be the effect or the level left.
Data set [11] relates to Mus musculus. In words: Reduction of body weight in ob/ob mouse at 100 mg/kg, po administered by subchronic dosing for 4 days (RVb 44 g). On the set-up: scale not given: the % may be the effect or the level left. In kind it is functional.
Data set [12] relates to Mus musculus. In words: Reduction of body weight in ob/ob mouse at 250 mg/kg, po administered by subchronic dosing for 4 days (RVb 44 g). In kind it is functional. On the set-up: scale not given: the % may be the effect or the level left.
Data set [13] deals with Mus musculus. In words: Reduction of body weight in ob/ob mouse at 500 mg/kg, po administered by subchronic dosing for 4 days (RVb 44 g). In kind it is functional. On the set-up: scale not given: the % may be the effect or the level left.
Data set [14] can be described thus: Inhibition of PDE11.
The target in data set [15] is 3',5'-cyclic-AMP phosphodiesterase 4B (Homo sapiens, UniProt Q07343). In words: Inhibition of PDE4b.
Sequence of 3',5'-cyclic-AMP phosphodiesterase 4B (Q07343 whole entry): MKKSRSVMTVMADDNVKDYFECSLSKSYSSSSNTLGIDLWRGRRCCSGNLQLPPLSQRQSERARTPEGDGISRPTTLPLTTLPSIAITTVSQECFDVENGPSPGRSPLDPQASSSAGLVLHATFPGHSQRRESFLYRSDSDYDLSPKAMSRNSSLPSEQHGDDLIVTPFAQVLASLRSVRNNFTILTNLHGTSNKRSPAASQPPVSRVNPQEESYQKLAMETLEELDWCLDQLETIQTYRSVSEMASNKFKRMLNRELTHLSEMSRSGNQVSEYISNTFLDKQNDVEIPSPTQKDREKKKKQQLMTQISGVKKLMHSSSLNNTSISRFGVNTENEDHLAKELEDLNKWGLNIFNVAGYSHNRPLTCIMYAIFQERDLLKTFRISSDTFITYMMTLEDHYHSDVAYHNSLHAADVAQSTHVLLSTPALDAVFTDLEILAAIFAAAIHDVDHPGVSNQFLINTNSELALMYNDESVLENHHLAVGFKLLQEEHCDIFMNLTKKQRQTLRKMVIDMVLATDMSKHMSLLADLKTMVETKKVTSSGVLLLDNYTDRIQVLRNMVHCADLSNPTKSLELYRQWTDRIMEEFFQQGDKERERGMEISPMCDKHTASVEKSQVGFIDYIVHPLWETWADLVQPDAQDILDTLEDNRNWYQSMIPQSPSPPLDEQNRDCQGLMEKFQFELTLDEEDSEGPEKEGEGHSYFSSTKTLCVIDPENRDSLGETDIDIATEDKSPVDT
Data set [16] concerns Mus musculus. In words: Free plasma concentration at terminal bleed in ob/ob mouse at 250 mg/kg, po administered by subchronic dosing for 4 days after 3 hrs of last dose.
Data set [17] relates to Mus musculus. Description: Free plasma concentration at terminal bleed in ob/ob mouse at 500 mg/kg, po administered by subchronic dosing for 4 days after 3 hrs of last dose.
Data set [18] is described as follows: Inhibition of PDE2.
For data set [19], the target named is cGMP-inhibited 3',5'-cyclic phosphodiesterase 3A (Homo sapiens, UniProt Q14432). In words: Inhibition of PDE3a.
Data set [20] has as its target cGMP-inhibited 3',5'-cyclic phosphodiesterase 3B (Homo sapiens, UniProt Q13370). Description: Inhibition of PDE3b.
Data set [21] has as its target 3',5'-cyclic-AMP phosphodiesterase 4A (Homo sapiens, UniProt P27815). Description: Inhibition of PDE4a.
Data set [22] deals with 3',5'-cyclic-AMP phosphodiesterase 4C (Homo sapiens, UniProt Q08493). Description: Inhibition of PDE4c.
Sequence of 3',5'-cyclic-AMP phosphodiesterase 4C (Q08493 whole entry): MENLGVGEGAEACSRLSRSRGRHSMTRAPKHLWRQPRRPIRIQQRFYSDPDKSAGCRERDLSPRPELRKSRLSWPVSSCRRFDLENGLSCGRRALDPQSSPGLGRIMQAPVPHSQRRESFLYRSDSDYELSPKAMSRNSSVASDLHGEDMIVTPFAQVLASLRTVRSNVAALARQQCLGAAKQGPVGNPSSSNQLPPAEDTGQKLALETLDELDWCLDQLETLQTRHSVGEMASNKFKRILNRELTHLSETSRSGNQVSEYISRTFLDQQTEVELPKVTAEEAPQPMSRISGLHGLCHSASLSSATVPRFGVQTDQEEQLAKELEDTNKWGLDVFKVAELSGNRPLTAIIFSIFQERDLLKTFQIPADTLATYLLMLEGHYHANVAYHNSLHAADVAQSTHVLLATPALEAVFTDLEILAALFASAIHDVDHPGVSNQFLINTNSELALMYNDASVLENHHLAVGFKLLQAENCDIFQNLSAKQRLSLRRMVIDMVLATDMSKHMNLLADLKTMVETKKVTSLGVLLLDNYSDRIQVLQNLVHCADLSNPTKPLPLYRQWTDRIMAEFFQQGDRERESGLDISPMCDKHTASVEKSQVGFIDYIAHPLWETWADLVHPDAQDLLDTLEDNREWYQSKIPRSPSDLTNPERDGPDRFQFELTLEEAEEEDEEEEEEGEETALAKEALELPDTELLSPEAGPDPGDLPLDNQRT
Data set [23] concerns the target 3',5'-cyclic-AMP phosphodiesterase 4D (Homo sapiens, UniProt Q08499). Description: Inhibition of PDE4d.
Data set [24] has as its target cGMP-specific 3',5'-cyclic phosphodiesterase (Homo sapiens, UniProt O76074). Description: Inhibition of PDE5.
The nature of data set [25]: Inhibition of PDE6.
For data set [26], the target named is High affinity 3',5'-cyclic-AMP phosphodiesterase 7A (Homo sapiens, UniProt Q13946). Description: Inhibition of PDE7a.
In data set [27] the target is 3',5'-cyclic-AMP phosphodiesterase 7B (Homo sapiens, UniProt Q9NP56). In words: Inhibition of PDE7b.
Data set [28] addresses High affinity cAMP-specific and IBMX-insensitive 3',5'-cyclic phosphodiesterase 8A (Homo sapiens, UniProt O60658). Description: Inhibition of PDE8a.
Data set [29] addresses High affinity cAMP-specific and IBMX-insensitive 3',5'-cyclic phosphodiesterase 8B (Homo sapiens, UniProt O95263). Description: Inhibition of PDE8b.
Data set [30] can be described thus: Inhibition of PDE10.
For data set [31], the system named is Mus musculus. In words: Free plasma concentration at terminal bleed in ob/ob mouse at 100 mg/kg, po administered by subchronic dosing for 4 days after 3 hrs of last dose.
Data set [32] is described as follows: Volume of distribution at steady state in rat. Particulars: in vivo.
The nature of data set [33]: Oral bioavailability in rat. The note with it: in vivo.
A short description of a further data set: in vivo. The note with it: rat.
Data set [34] can be described thus: Apparent permeability across MDCK cells. Particulars: dog.

Each structure is given as a SMILES string.

Sequence of 3',5'-cyclic-AMP phosphodiesterase 4A (P27815 whole entry): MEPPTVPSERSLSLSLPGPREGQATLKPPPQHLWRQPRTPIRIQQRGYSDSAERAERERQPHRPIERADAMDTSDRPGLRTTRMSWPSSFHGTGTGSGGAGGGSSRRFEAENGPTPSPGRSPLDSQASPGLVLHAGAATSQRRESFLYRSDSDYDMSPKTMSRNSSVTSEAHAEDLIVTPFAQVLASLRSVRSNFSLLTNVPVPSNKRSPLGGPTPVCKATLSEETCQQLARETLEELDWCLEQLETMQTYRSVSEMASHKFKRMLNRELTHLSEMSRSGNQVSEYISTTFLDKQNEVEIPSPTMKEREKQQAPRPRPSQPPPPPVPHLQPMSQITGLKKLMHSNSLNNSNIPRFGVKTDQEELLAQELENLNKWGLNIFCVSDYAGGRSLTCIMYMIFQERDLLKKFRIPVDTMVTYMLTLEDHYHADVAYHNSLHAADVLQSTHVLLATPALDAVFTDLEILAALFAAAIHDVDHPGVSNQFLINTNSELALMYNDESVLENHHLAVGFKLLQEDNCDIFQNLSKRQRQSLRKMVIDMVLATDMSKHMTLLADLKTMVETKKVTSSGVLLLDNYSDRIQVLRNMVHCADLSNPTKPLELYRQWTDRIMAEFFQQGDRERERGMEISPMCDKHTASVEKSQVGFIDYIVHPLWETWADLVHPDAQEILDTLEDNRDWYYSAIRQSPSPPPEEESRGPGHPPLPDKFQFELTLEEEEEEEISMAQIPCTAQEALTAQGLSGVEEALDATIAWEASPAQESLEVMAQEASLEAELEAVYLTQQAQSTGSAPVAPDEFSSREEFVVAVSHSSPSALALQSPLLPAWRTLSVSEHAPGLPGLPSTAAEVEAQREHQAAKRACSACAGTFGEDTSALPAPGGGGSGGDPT
Sequence of High affinity cAMP-specific and IBMX-insensitive 3',5'-cyclic phosphodiesterase 8B (O95263 whole entry): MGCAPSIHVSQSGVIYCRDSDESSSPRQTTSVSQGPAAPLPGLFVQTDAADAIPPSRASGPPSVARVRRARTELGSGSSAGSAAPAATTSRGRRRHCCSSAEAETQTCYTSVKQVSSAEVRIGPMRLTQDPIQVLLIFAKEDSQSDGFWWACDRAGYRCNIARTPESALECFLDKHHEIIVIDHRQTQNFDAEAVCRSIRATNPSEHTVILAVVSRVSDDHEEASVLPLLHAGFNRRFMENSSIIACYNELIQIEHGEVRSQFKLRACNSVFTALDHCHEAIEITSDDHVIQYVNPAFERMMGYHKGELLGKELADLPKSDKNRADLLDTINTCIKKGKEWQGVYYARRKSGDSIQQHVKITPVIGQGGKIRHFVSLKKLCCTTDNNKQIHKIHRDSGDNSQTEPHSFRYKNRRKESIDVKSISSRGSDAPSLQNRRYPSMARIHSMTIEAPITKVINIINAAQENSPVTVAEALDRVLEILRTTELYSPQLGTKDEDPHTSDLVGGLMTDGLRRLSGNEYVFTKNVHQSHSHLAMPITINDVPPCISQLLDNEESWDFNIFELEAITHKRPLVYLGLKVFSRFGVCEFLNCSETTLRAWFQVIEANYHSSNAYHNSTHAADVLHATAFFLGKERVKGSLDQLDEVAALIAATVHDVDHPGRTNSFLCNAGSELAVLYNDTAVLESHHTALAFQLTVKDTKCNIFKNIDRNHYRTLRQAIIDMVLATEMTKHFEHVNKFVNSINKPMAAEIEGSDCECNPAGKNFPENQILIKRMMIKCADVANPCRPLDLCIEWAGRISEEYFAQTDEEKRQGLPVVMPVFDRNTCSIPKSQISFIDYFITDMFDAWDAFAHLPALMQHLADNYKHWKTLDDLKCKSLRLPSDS
Sequence of High affinity cGMP-specific 3',5'-cyclic phosphodiesterase 9A (O76083 whole entry): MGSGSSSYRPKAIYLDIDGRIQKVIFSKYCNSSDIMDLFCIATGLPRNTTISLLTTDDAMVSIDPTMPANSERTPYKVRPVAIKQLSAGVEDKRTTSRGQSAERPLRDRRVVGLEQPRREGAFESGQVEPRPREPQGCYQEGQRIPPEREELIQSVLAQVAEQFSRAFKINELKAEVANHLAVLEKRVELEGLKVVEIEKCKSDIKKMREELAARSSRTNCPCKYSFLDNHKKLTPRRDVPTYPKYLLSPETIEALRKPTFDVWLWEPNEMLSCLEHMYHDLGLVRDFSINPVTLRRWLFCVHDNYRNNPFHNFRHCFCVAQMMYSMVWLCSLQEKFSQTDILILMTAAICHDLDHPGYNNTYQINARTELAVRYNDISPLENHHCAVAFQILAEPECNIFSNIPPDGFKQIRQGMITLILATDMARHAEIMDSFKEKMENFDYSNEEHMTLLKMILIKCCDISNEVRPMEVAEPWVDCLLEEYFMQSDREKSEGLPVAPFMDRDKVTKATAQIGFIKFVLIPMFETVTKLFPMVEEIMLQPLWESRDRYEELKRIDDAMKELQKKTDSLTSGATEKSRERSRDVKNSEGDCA
Sequence of cGMP-inhibited 3',5'-cyclic phosphodiesterase 3B (Q13370 whole entry): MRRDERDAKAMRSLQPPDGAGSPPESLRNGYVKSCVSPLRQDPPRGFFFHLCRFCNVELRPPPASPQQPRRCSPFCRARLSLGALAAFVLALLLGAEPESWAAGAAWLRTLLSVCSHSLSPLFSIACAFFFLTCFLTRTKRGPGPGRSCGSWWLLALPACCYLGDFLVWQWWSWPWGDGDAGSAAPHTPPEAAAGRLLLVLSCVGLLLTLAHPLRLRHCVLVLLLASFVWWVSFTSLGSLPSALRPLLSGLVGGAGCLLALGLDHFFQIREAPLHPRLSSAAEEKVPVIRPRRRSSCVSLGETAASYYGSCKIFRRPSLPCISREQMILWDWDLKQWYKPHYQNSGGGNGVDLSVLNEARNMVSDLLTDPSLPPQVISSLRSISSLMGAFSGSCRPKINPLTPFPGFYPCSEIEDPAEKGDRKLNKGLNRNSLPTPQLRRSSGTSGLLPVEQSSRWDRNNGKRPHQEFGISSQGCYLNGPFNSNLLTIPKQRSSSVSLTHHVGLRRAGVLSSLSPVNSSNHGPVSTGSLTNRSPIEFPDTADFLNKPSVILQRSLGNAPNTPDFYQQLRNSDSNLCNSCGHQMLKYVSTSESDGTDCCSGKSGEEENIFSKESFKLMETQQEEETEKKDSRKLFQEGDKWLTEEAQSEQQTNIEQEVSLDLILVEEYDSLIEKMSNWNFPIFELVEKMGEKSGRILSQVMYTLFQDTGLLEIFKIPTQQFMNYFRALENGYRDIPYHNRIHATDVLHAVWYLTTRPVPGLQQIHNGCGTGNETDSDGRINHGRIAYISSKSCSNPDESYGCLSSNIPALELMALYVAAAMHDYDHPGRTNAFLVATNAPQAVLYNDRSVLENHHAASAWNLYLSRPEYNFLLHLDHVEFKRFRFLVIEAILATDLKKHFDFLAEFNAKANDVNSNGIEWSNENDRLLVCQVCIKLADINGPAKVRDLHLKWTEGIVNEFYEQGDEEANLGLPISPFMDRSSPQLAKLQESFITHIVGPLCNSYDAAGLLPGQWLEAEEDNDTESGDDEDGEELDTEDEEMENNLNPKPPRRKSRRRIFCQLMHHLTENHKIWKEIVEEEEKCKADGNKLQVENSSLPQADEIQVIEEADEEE

`CC(C)c1n[nH]c2c(=O)[nH]c(Cc3ccccc3OCCN3CCOCC3)nc12`: the IC50 in [1] was 0.041 µM; in data set [2], 3.9 µM; in [3], 4.95 µM; in [4], 1.13 µM; in [14] it was over 10 µM; in data set [15], over 10 µM. In addition, the half-inhibitory concentration (IC50) was 8.2 µM in [18]; over 10 µM in [19]; over 10 µM in data set [20]; over 10 µM in [21]; over 10 µM in data set [22]; over 10 µM in data set [23]. Besides, the concentration for half-maximal inhibition (IC50) in data set [24] is 5.2 µM; in data set [25], over 10 µM; in data set [26] it was over 10 µM; in data set [27], over 10 µM; in [28] it was over 10 µM; in data set [29] it was over 10 µM. For the same molecule, the IC50 in data set [30] was over 10 µM. Also, the Activity is given as -32% with Mus musculus [5]; -40% in the data set on Mus musculus [6]; -55% in the data set with Mus musculus [7]; -35% in the data set with Mus musculus [8]; -35% in the data set on Mus musculus [9]; -59% in the data set on Mus musculus [10]. Further, the Activity is -4.3% in the data set on Mus musculus [11], -6.4% in the data set with Mus musculus [12] and -11% with Mus musculus [13]. Moreover, the “Cp(f)” value in the data set with Mus musculus [16] (mouse, in vivo, po, 250 mg/kg, 3 h) was 243 nM; in the data set with Mus musculus [17] (mouse, in vivo, po, 500 mg/kg, 3 h), 361 nM; with Mus musculus [31] (mouse, in vivo, po, 100 mg/kg, 3 h), 140 nM.

Turning to `CC(C)c1n[nH]c2c(=O)[nH]c(C[C@@H]3CCCC[C@H]3Nc3ncc(C(=O)O)c(C(F)(F)F)n3)nc12`, the IC50 is 0.007 µM in data set [1]; over 10 µM in data set [2]; over 10 µM in data set [3]; over 10 µM in data set [4]; over 1 µM in data set [14]; over 1 µM in data set [15]. Moreover, the 50% inhibitory concentration (IC50) with Mus musculus [16] (Mus musculus, Plasma) was over 1 µM; in the data set with Mus musculus [17] (Mus musculus, Plasma) it was over 1 µM; in data set [18], over 1 µM; in data set [19] it was over 1 µM; in [20], over 1 µM; in [21] it was over 1 µM. Besides, the IC50 in data set [22] is over 1 µM; in [23] it was over 1 µM; in data set [24], 0.37 µM; in data set [25] it was over 1 µM; in data set [26], over 1 µM; in [27], over 1 µM. Moreover, the half-maximal inhibitory concentration (IC50) in data set [28] was over 1 µM; in data set [29] it was over 1 µM; in [30], over 1 µM; in the data set on Mus musculus [31] (Mus musculus, Plasma) it was over 1 µM. The molecule further displayed a Vd in [32] of 0.12 L/kg. The bioavailability in data set [33] is 100%. The same molecule came in with a clearance in “in vivo” of 19.8 mL/min/kg.

Consider `CC(C)c1nn(C)c2c(=O)[nH]c(Cc3ccccc3OCCN3CCOCC3)nc12`, for which the half-maximal inhibitory concentration (IC50) in data set [1] was found to be 0.53 µM; in data set [2], 0.79 µM; in [3], 7.81 µM; in data set [4], 0.97 µM.

Regarding `CC(C)c1n[nH]c2c(=O)[nH]c(C[C@@H]3CCCC[C@H]3NC(=O)CN3CCCC3)nc12`, the half-maximal inhibitory concentration (IC50) in data set [1] is 0.036 µM; in data set [2], over 10 µM; in data set [3], over 10 µM; in data set [4], over 10 µM.

For the molecule `CC(C)c1[nH]nc2c(=O)[nH]c(C[C@@H]3CCCC[C@H]3NC(=O)NCCCN3CCOCC3)nc12`, the IC50 was 0.046 µM in [1], over 10 µM in [2], over 10 µM in data set [3] and 4.2 µM in data set [4]. The apparent permeability (Papp) in data set [34] amounted to 0.7 ×10⁻⁶ cm/s.

With `CC(C)c1n[nH]c2c(=O)[nH]c(C[C@@H]3CCCC[C@H]3Nc3ncccn3)nc12`, the concentration for half-maximal inhibition (IC50) was 0.035 µM in data set [1]; 7.7 µM in data set [2]; 9.8 µM in [3]; 4.4 µM in data set [4]; 8.4 µM in data set [14]; over 10 µM in data set [15]. Also, the half-maximal inhibitory concentration (IC50) in [18], in data set [19], in data set [20], in data set [21], in data set [22] and in data set [23] was over 10 µM each time. Also, the IC50 in [24] is 1.5 µM; in data set [25] it was over 10 µM; in data set [26], over 10 µM; in [27], over 10 µM; in [28] it was over 10 µM; in data set [29], over 10 µM. The concentration for half-maximal inhibition (IC50) in data set [30] was over 10 µM.

Turning to `CC(C)c1[nH]nc2c(=O)[nH]c(C[C@@H]3CCCC[C@H]3NC(=O)CC3CCOCC3)nc12`, the 50% inhibitory concentration (IC50) in data set [1] was 0.019 µM; in data set [2] it was over 10 µM; in data set [3], over 10 µM; in [4], 3.1 µM.

Consider `CC(C)c1n[nH]c2c(=O)[nH]c(Cc3ccccc3OC(F)(F)F)nc12`, for which the concentration for half-maximal inhibition (IC50) came out at 0.056 µM in [1], 2.5 µM in data set [2], 2.65 µM in data set [3] and 0.52 µM in data set [4]. Further, in [34], the apparent permeability (Papp) amounted to 10.8 ×10⁻⁶ cm/s.

Turning to `CC(C)c1n[nH]c2c(=O)[nH]c(Cc3ccccc3OCc3ccccc3)nc12`, the half-maximal inhibitory concentration (IC50) came out at 0.082 µM in data set [1], 1.43 µM in data set [2], 2.63 µM in data set [3] and 1.34 µM in data set [4].

Take `CC(C)c1n[nH]c2c(=O)[nH]c(Cc3cccc(Cl)c3)nc12`: the results for the IC50 in data set [2], in [3] and in data set [4] were 0.054 µM, 0.038 µM and 0.004 µM, respectively.

With `CC(C)c1n[nH]c2c(=O)[nH]c(C[C@@H]3CCCC[C@H]3OCCN3CCOCC3)nc12`, the half-maximal inhibitory concentration (IC50) in data set [1] was 0.087 µM; in data set [2], over 10 µM; in data set [3], over 10 µM; in data set [4] it was 2.05 µM.

For the molecule `Cc1ccc(N[C@@H]2CCCC[C@H]2Cc2nc3c(C(C)C)[nH]nc3c(=O)[nH]2)nn1`, the 50% inhibitory concentration (IC50) was 0.023 µM in data set [1], over 10 µM in data set [2], over 10 µM in data set [3] and 7.6 µM in data set [4].

What is called IC50 is the concentration needed to halve the response being measured. The term Vd denotes a proportionality between amount in the body and measured concentration, not a real space. The term bioavailability denotes the share of a dose that reaches the circulation, judged against a reference dose that is usually intravenous. The clearance is a measure of how efficiently the substance is removed, as volume per time. Broadly, the Papp is a coefficient for how fast a substance crosses the barrier.
